Tested on: duplex-form calf thymus DNA (CT-DNA)
Assay: Thermal denaturation studies with calf thymus DNA
Assay type: binding
Settings: [PBD]:[DNA] molar ratio 1:5, CT-DNA 100 μM, ligand 20 μM, pH 7.00; for ΔTμ (° C.) after incubation at 37 °C. for 0 h: 0 h incubation; for ΔTμ (° C.) after incubation at 37 °C. for 18 h: 18 h incubation
Procedure: These compounds have also been subjected to thermal denaturation studies with duplex-form calf thymus DNA (CT-DNA) using an modification of a reported procedure. Working solutions in aqueous buffer (10 mM NaH2PO4/Na2HPO4, 1 mM Na2EDTA, pH 7.00+0.01) containing CT-DNA (100 μm in phosphate) and the PBD (20 μm) have been prepared by addition of concentrated PBD solutions in DMSO to obtain a fixed [PBD]/[DNA] molar ratio of 1:5. The DNA-PBD solutions have been incubated at 37° C. for 0 and 18 h prior to analysis. Samples have been monitored at 260 nm using a Beckman DU-800 spectrophotometer fitted with high performance temperature controller, and heated at 1° C. min^−1 in the 40-110° C. range. DNA helix→coil transition temperatures (Tm) have been obtained from the maxima in the d(A260)/d T derivative plots. Drug-induced alterations in DNA melting behavior are given by: ΔTm=Tm(DNA+PBD)−Tm(DNA alone), where the Tm value for the PBD-free CT-DNA is 68.5±0.01.

Structure (SMILES)	ΔTμ (° C.) after incubation at 37 °C. for 0 h [°C]	ΔTμ (° C.) after incubation at 37 °C. for 18 h [°C]
COc1cc(C=CC(=O)c2c(C)nc3ccccc3c2C)ccc1OCCCCCOc1cc2c(cc1OC)C(=O)N1CCC[C@H]1C=N2 [10c, 7-Methoxy-8-{5-[3-(4-hydroxy-3-methoxyphenyl)-1-(2,4-dimethyl-3-quinolyl)-2-propen-1-one]pentyl}-oxy-(11aS)-1,2,3,11a-5H-pyrrolo[2,1-c][1,4]benzodiazepin-5-one]	4.7	5.1
COc1cc(C=CC(=O)c2c(C)nc3ccccc3c2C)ccc1OCCCCCCOc1cc2c(cc1OC)C(=O)N1CCC[C@H]1C=N2 [10d, 7-Methoxy-8-{6-[3-(4-hydroxy-3-methoxyphenyl)-1-(2,4-dimethyl-3-quinolyl)-2-propen-1-one]hexyl}-oxy-(11aS)-1,2,3,11a-5H-pyrrolo[2,1-c][1,4]benzodiazepin-5-one]	4.9	5.3
COc1cc2c(cc1O)N=CC1CCCN1C2=O (stereo not drawn) [DC-81, reference compound]	0.3	0.7

From US8461150B2, “Chalcone linked pyrrolo[2,1-c][1, 4]benzodiazepine hybrids as potential anticancer agents and process for the preparation thereof” (Council of Scientific & Industrial Research, priority 2008, dated 2013)
